Measurements from publication PMC6680314, “Characterization of the recombinant Brettanomyces anomalus β‐glucosidase and its potential for bioflavouring” (Journal of Applied Microbiology, 2016).

Columns and labels:
[1] = tested on: T1, B. anomalus β-glucosidase (YV396 β-glucosidase); test: glucose release, GOD-PAP assay at […] nm, Michaelis-Menten fit; type: biochemical, Brettanomyces anomalus; settings: McIlvaine buffer pH 5.75, 37 °C (optimum of this enzyme); free enzyme; read-out: pH 5.75 37°C / K M
T1 construct: gene GH3 beta-glucosidase; full gene (2523 bp incl. stop, about 840 residues), codon optimised, pET28-YV396-His6, tag kept, E. coli BL21(DE3), Ni-Sepharose and Superdex 200

[2] = tested on: T2, almond β-glucosidase; test: as above; type: biochemical, Prunus dulcis; settings: McIlvaine buffer pH 5.75, 37 °C; commercial preparation; read-out: pH 5.75 37°C / K M
T2 construct: gene GH1 beta-glucosidase

| Structure (SMILES) | Km [1] [mM] | Km [2] [mM] |
| --- | --- | --- |
| N#C[C@H](O[C@@H]1O[C@H](CO[C@@H]2O[C@H](CO)[C@@H](O)[C@H](O)[C@H]2O)[C@@H](O)[C@H](O)[C@H]1O)c1ccccc1 [amygdalin] | 1 ± 0.05 | 10.1 ± 0.13 |
| OC[C@H]1O[C@@H](O[C@H]2[C@H](O)[C@@H](O)C(O)O[C@@H]2CO)[C@H](O)[C@@H](O)[C@@H]1O (stereo partly drawn) [cellobiose] | 15.1 ± 0.73 | 0.34 ± 0.08 |
| OCc1ccccc1O[C@@H]1O[C@H](CO)[C@@H](O)[C@H](O)[C@H]1O [salicin] | 1.01 ± 0.18 | 19.6 ± 2.06 |
